Test results reported in PMC4942819 (Scientific Reports, 2016).
≈ marks a conversion by molar mass, not a printed value. Like-named read-outs stand apart in the source and are kept apart here.

Assays:
[1] = test system: Mycobacterium tuberculosis H37Rv; test: microplate Alamar blue assay (MABA), MIC; type: cell-based; settings: replicating H37Rv
[2] = test system: Mycobacterium tuberculosis Erdman; test: microplate Alamar blue assay (MABA), MIC; type: cell-based
Vero cells = test: cytotoxicity, MTT assay; type: cell-based; settings: Chlorocebus sabaeus
Protocol: The compounds were examined for toxicity (IC50) using MTT assay. Briefly, cells (3 ~ 5 × 10^3 cells/well) were seeded in a 96-well plate. After 24 h incubation, the cells were treated with various concentrations of drugs for 24, 48, 72 h, respectively. Columns one and two in the assay plates contained-media +0.1% DMSO for a negative control ,Then, 20 μl of a 5 mg/mL MTT solution was added to each well, and the plates were incubated for an additional 2~4 h at 37 °C. The medium was subsequently discarded, and DMSO 150 μL was added to dissolve the formazan. Oscillate 15 min, the OD 570 was measured using a Spectra MAX M5 microplate spectrophotometer (Molecular Devices, CA, USA), and the IC50 values were calculated.
(§1) Compound MIC was conducted by ShangHai Chempartner Co., Ltd (Shanghai, China) using the microplate Alamar Blue assay (MABA) against Mycobacterium tuberculosis H37Ra (ATCC 25177). Cytotoxicity of tested compounds was assessed on Vero cells.

MDR-TB clinical isolates = test: microbe, parasite or virus in culture; type: cell-based; settings: Mycobacterium tuberculosis
XDR-TB clinical isolates = test: microbe, parasite or virus in culture; type: cell-based, Mycobacterium tuberculosis; settings: Mycobacterium tuberculosis
[3] = test system: M. tuberculosis Erdman in J774A.1 cells; test: macrophage assay, intracellular activity; type: cell-based, Mycobacterium tuberculosis; settings: for Fold(log) reduction: decrease of log10 CFU between D7 and treatment group, J774A.1, 0.02 μM (Fig. 2 legend: 0.02 μg/mL)
Protocol: As described previously, J774A.1 cells were grown in 75-cm2 cell culture flasks in 10% FBS in Dulbecco’s modified Eagle’s medium (DMEM) until confluency. The cells were detached using a cell scraper, and then centrifuged at 200 g for 5 min at room temperature. The cells were incubated at 37 °C under 5% CO2 for 16 h after distributing into 24-well plates containing coverslips. M. tuberculosis Erdman (ATCC 35801) were diluted to a final concentration of 1 × 10^5 to 3 × 10^5 CFU/mL with DMEM after thawing and sonicating from frozen cultures. And 500 ul of the dilution was dispensed to each well of a new 24-well plate. Followed by, J774A.1 cells on coverslips were infected by incubation with M. tuberculosis Erdman at 37 °C for 2 h. Coverslips were then washed with HBSS and transferred to new 24-well plates. The Cultures were treated in triplicate with compounds at 0.02 μM containing DMEM and incubated at 37 °C under 5% CO2 for 16 h. At D 0 (for untreated controls) and after 7 days of incubation, macrophage cells were lysed by addition of 200 μL of 0.25% sodium dodecyl sulfate. The plates were incubated at 37 °C for 10 min, and 200 μL of DMEM was added. The lysate was sampled using a microtube and sonicated for 15 s. Then 1:1, 1:10, 1:100, and 1:1,000 dilutions were plated on 7H11 agar plates and CFU counts determined after 2 to 3 weeks of incubation at 37 °C.

[4] = pharmacokinetic study in SD rats; type: in vivo; settings: female, rat, plasma, SD rats
Protocol: All animal experiments have been approved by the Institutional Animal Care and Treatment Committee of Sichuan University in China and were carried out in accordance with the approved guidelines. SPF female SD rats weighing 180–220 g were used in the pharmacokinetic study. The rats were fasted overnight before dosing. Every treatment group contain 3 rats. Rats were dosed with SKLB-TB1001 or BTZ043 suspension at 5 mg/kg (i.v. and p.o.). Compounds were dissolved in 5% DMSO/10% Solutol HS15 in saline for intravenous injection and suspended in 0.5% CMC for oral administration. Blood was collected from the jugular vein of each animal at the following times after administration of drugs: 0.083, 0.25, 0.5, 1, 2, 4, 6, 8 and 24 h after a single i.v. dosing; and 0.25, 0.5, 1, 2, 4, 6, 8 and 24 h after a single oral dosing. All blood samples were centrifuged at 3000 r/min for 10 min to obtain serum which was then stored at −20 °C. 150 μL of the serum was added to 500 μL of acetonitrile and the mixture was centrifuged at 13000 r/min for 10 min to remove protein. The supernatant was dried and dissolve in 100 μL of acetonitrile, the solution was centrifuged at 13000 r/min for 10 min. The supernatant was moved to a sample bottle for HPLC analysis. Total area under the concentration time curve (AUC), the elimination half-time (t1/2), the peak concentration (Cmax) and the time to reach peak concentration (Tmax) of samples were determined directly from the experimental data using WinNonlin V6.2.1.

M. tuberculosis Erdman = test: in vivo acute M.tb Erdman infection mouse model; design: species or system Mycobacterium tuberculosis; settings: BALB/c mice
[5] = test system: Mycobacterium tuberculosis H37Ra (ATCC 25177); test: microplate Alamar Blue assay (MABA), MIC, H37Ra; type: cell-based
Protocol: as §1

MDR1 = test: bi-directional permeability across MDR1-MDCKII cell monolayer; type: in vitro ADME; settings: dog, MDCK-MDR1; MDR1-MDCKII
Protocol: (§2) The In vitro ADME/T assays were conducted at WuXi AppTec Co. Ltd.(Shanghai). ClogP was calculated with ChemDraw Ultra 14.0. In the study of bi-directional permeability across MDR1-MDCKII cell monolayer, permeability was correlated with the apparent permeability coefficient Papp (cm/s), which was interpreted as follows: Low permeability( Papp ≤ 1.0×10^-6 cm/s), Moderate permeability(1.0×10^-6 < Papp < 5.5×10^-6 cm/s) or High permeability( Papp ≥ 5.5×10^-6 cm/s). ^aaqueous solubility at room temperature.

CYP2D6 = CYP2D6 (Homo sapiens, UniProt P10635); test: CYP inhibition; type: in vitro ADME
Sequence of CYP2D6 (P10635 whole entry): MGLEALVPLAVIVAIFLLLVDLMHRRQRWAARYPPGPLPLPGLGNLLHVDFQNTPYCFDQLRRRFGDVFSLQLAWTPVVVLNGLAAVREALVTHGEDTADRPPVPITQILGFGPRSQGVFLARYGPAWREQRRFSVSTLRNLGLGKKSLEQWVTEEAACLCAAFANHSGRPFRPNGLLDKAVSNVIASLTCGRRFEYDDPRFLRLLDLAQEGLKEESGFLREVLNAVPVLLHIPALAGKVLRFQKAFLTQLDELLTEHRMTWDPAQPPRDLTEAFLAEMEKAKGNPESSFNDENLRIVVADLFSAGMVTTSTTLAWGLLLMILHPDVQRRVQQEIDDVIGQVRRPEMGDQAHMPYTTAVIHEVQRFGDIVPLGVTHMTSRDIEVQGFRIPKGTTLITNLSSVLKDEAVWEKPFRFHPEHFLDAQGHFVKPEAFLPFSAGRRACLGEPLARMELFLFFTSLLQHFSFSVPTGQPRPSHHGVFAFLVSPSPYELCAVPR
Protocol: as §2

CYP3A4 = CYP3A4 (Homo sapiens, UniProt P08684); test: CYP inhibition; type: in vitro ADME
Sequence of CYP3A4 (P08684 whole entry): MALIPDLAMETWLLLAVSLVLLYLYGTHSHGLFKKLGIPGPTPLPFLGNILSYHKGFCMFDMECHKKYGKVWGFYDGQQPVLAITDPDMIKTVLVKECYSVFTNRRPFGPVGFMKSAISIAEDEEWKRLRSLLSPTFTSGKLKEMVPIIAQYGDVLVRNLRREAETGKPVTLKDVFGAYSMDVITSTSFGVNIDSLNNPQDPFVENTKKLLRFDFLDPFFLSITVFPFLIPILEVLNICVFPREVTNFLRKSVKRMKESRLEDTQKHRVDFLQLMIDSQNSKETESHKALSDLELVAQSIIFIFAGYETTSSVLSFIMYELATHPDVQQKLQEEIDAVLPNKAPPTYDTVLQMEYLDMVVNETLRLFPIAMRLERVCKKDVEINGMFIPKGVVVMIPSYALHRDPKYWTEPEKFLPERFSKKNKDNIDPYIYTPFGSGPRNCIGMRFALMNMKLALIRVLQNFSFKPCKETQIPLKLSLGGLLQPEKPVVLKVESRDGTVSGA
Protocol: as §2

O=[N+]([O-])c1cc(C(F)(F)F)cc2c(=S)nc(N3CCC4(CC3)OCCO4)sc12 [SKLB-TB1001, 8-nitro-2-(1,4-dioxa-8-azaspiro[4.5]decan-8-yl)-6-(trifluoromethyl)-4H-benzo[e][1,3]thiazine-4-thione]
MIC [1]: 0.02 µg/mL (≈ 0.0461 µM) | MIC [2]: < 0.05 µg/mL | IC50 (Vero cells; Vero, cytotoxicity, read-out: IC50 Vero): > 100 µg/mL | IC50 (Vero cells; cytotoxicity on Vero cells, read-out: IC50): > 20 µM | MIC (MDR-TB clinical isolates; read-out: MIC, MDR-TB strain M3): < 0.0156 µg/mL | MIC (MDR-TB clinical isolates; read-out: MIC, MDR-TB strain M4): < 0.0156 µg/mL | MIC (MDR-TB clinical isolates; read-out: MIC, MDR-TB strain M8): < 0.0156 µg/mL | MIC (MDR-TB clinical isolates; read-out: MIC, MDR-TB strain M18): < 0.0156 µg/mL | MIC (XDR-TB clinical isolates; read-out: MIC, XDR-TB strain X15): < 0.0156 µg/mL | MIC (XDR-TB clinical isolates; read-out: MIC, XDR-TB strain X17): < 0.0156 µg/mL | Log10 CFU, intracellular Mtb Erdman ([3]; J774A.1 macrophages, 0.02 μM (Fig. 2 legend: 0.02 μg/mL), 7 days): 4.77 | Fold(log) reduction [3]: 2.08 log | Fold(log) reduction ([3]; listed as SKLB-1001): 2.1 log | bioavailability ([4]; oral, AUC (p.o., 5 mg/kg)/AUC(i.v., 5 mg/kg), read-out: F, absolute oral bioavailability): 44.4% | half-life ([4]; po, 5 mg/kg, terminal half-life for elimination): 1.45 h | AUC ([4]; po, p.o., 5 mg/kg, t = 0 to infinity, read-out: AUC): 847 ng·h/mL | Tmax ([4]; po, p.o., 5 mg/kg, read-out: Tmax): 1.13 h | Cmax ([4]; po, p.o., 5 mg/kg, read-out: Cmax): 193 ng/mL | reduction of M.tb CFU in lungs compared to the vehicle group (M. tuberculosis Erdman; 150 mg/kg daily for 4 weeks): 3.4 logs | reduction of M.tb CFU in lungs compared to treatment initiation (M. tuberculosis Erdman; 150 mg/kg daily for 4 weeks): 0.87 logs | Log10 CFU (SD), bacterial burden in mouse lungs (M. tuberculosis Erdman; Day-36, 150 mg/kg oral daily from day 10): 2.84 (2.93) | MIC [5]: < 0.1 µM | Papp A→B (MDR1): 6.96 ×10⁻⁶ cm/s | Papp B→A (MDR1): 7.27 ×10⁻⁶ cm/s | efflux ratio (MDR1): 1.04 | IC50 (CYP2D6): > 10 µM | IC50 (CYP3A4): > 10 µM
